Consider three substances from patent publication US20250235429A1, “TREATMENT OF DISEASES VIA ADMINISTRATION OF BUNTANETAP AND AN ANTIDIABETIC AGENT” (ANNOVIS BIO, INC., priority 2024, published 2025).

Series [1] has as its system hippocampal slices APP/PS1 transgenic mice. Put plainly: Electrophysiological study: long-term potentiation (LTP) in hippocampal slices. The format is in vivo. As to the method: (§1) Animals: Heterozygous double transgenic mice expressing both human APP (K670N:M671L) and human PS1 (M146L) (line 6.2) and their wild-type non-transgenic littermates, both males and females, were used for these experiments. They were obtained by a breeding colony maintained at the animal facility of Columbia University. They were genotyped through PCR on tail samples. Animals were injected i.p. from the age of […] for 1 month prior to starting behavioral assessment which lasted for 2 weeks during which treatment continued. Behavioral assessment examined spatial and associative memory. Finally, mice were sacrificed for electrophysiological assessment of synaptic function.
(§2) Mice were coded to blind investigators with respect to genotype and treatment. Results were expressed with Standard Error of the Mean (SEM). Level of significance was set for p<0.05. Results were analyzed by ANOVA analysis with post-hoc correction with the combination or genotype as main effect. Experiments were designed in a balanced fashion, and mice were trained and tested at each of the different conditions in 3 or 4 separate experiments.
Mice were i.p. injected with the drug from the age of 8 weeks prior to plaque appearance until euthanasia for collecting slices at the age of 14-16 weeks. The treatment with Buntanetap was daily, whereas the treatment with dulaglutide was twice a week.
Electrophysiological analysis was performed on 400 μm hippocampal slices, cut with a tissue chopper and maintained in an interface chamber at 29° C. for 90 min prior to recording. Briefly, CA1 fEPSPs were recorded by placing both the stimulating and the recording electrodes in CA1 stratum radiatum. Basal synaptic transmission was assayed, either by plotting the stimulus voltages against slopes of fEPSP, or by plotting the peak amplitude of the fiber volley against the slope of the fEPSP. For LTP experiments, a 15 min baseline was recorded every min at an intensity that evokes a response ˜35% of the maximum evoked response. LTP was induced using θ-burst stimulation (4 pulses at 100 Hz, with the bursts repeated at 5 Hz and each tetanus including 3 ten-burst trains separated by 15 see). Data was subjected to statistical analyses to determine the effects of combination on inhibiting synaptic dysfunction.

Series [2] relates to APP/PS1 transgenic mice. As to the kind of experiment: 2-day radial arm water maze (RAWM), spatial memory. Type of series: in vivo. As to the method: as §1, §2
Mice were i.p. injected with the drug from the age of 8 weeks prior to plaque appearance until behavioral assessment that started at 12 weeks of age and lasted for 2 weeks.
Spatial memory was studied with the 2-day radial arm water maze (RAWM) test. The task is a hybrid of the Morris Water Maze (MWM) and the radial arm land maze. The motivation for the animals is immersion in water. The mouse needs to swim in 6 alleys (arms) radiating from a central area until it finds a hidden (submerged) platform at the end of one of the arms, based on visual cues placed in the room. In the old RAWM version of the task, the goal arm varies from day to day, requiring 21 days of training in wild-type mice to reach the learning criterion. In the new version of the task, the goal arm is kept constant for all trials, with a different start arm on successive trials, such that the learning criterion will be reached in 2 days. The first day of the protocol was a training day. Mice were trained to identify the platform location by alternating between a visible and a hidden platform in a goal arm. The final 3 trials on day 1 and all 15 trials on day 2 used a hidden escape platform to force mice to use spatial cues to identify the location of the goal arm. To avoid learning limitations imposed by exhausting practice and to avoid fatigue that may result from consecutive trials, spaced practice training was established by running the mice in cohorts of 4 and alternating different cohorts through the 15 training trials over 3 hours testing periods each day. On day 1, a visible platform was laced in a goal location. Mouse 1 of cohort 1 was gently placed in the pool near the perimeter of the wall of the first start arm (specified on a score sheet) and facing the center of the pool. The number of incorrect arm entries (entries in arms with no platform) was counted. If the animal enters the incorrect arm it was gently pulled back to the start arm. Each trial lasted up to 1 min. Failure to select an arm after 15 sec was counted as an error and the mouse was returned to the start arm. After 1 min, if the platform had not been located, the mouse was guided gently through the water by placing a hand behind it to direct it towards the platform. The mouse rested on the platform for 15 sec. After completing the trial, the mouse was removed from the pool, gently towel dried and placed back into its cage under a heat lamp. The goal platform location was different for each mouse. […] After each mouse from cohort 1 completed six alternating trials between visible and hidden platforms, the mice were left to rest under a heating source, and mice from the second cohort were tested in the same way.

In series [3] the test system is APP/PS1 transgenic mice. Put plainly: Contextual fear conditioning (FC), associative memory. Type of series: in vivo. As to conditions: Buntanetap 1 mg/Kg and/or dulaglutide 0.1 mg/Kg. As to the method: as §1
Mice were coded to blind investigators with respect to genotype and treatment. Results were expressed with Standard Error of the Mean (SEM). […] Results were analyzed by ANOVA analysis with post-hoc correction with the combination or genotype as main effect. […]
The combination effect on associative memory was assessed through fear conditioning (FC). […] Freezing behavior, defined as the absence of movements except for that needed for breathing, was scored using Noldus software. Contextual fear learning, a type of memory for which hippocampal function is indispensable, was evaluated 24 hrs after training by measuring freezing responses for 5 min in the same chamber where the mice have been trained. […]

For series [4] the following is noted: in vivo; cited from earlier work.
Where [5] appears, read: APP/PS1 mice, Buntanetap 1 mg/Kg and/or dulaglutide 0.1 mg/Kg.

Consider “dulaglutide: GLP-1 agonist, commercially available as Trulicity®”, for which the “% Improvement (Residual Potential)” value stood at 21.4% in series [1] (APP/PS1, dulaglutide 0.1 mg/kg); 32.3% in series [1] (APP/PS1, dulaglutide 0.3 mg/kg); 71.1% in series [1] (APP/PS1, dulaglutide 0.6 mg/kg). The “Residual Potential (mean)” value in series [1] (APP/PS1, dulaglutide 0.1 mg/kg i.p. twice a week) is 155.52; in series [1] (APP/PS1, dulaglutide 0.3 mg/kg i.p. twice a week), 164.68; in series [1] (APP/PS1, dulaglutide 0.6 mg/kg i.p. twice a week) it was 197.26. The “impairment of synaptic plasticity measured through Long-term potentiation (LTP)” value in series [1] (setting [5]) is given as “did not ameliorate”. For the same substance, the “% Improvement (RAWM errors)” value was determined as 23.5% in the series with APP/PS1 transgenic mice [2] (APP/PS1, dulaglutide 0.1 mg/kg); 47.1% in the series on APP/PS1 transgenic mice [2] (APP/PS1, dulaglutide 0.3 mg/kg); 88.2% in the series on APP/PS1 transgenic mice [2] (APP/PS1, dulaglutide 0.6 mg/kg). The “Meran Number of Errors (RAWM)” value is listed as 2.9 in the series on APP/PS1 transgenic mice [2] (APP/PS1, dulaglutide 0.1 mg/kg); 2.5 in the series with APP/PS1 transgenic mice [2] (APP/PS1, dulaglutide 0.3 mg/kg); 1.8 in the series with APP/PS1 transgenic mice [2] (APP/PS1, dulaglutide 0.6 mg/kg). The “impairment of short-term spatial memory measured through the 2-day radial arm water maze (RAWM)” value in the series with APP/PS1 transgenic mice [2] (setting [5]) is reported as “did not ameliorate”. Moreover, in the series with APP/PS1 transgenic mice [3], the “impairment of associative memory measured through contextual fear conditioning (FC)” value was “did not ameliorate”.

As for “Insulin glulisine: insulin commercially available as Apidra®”, the onset in series [4] is 5 to 15 min.

Regarding Insulin detemir, in series [4], the onset entry is “about 1 hours” and the “peak concentration occurs after administration” value was 3 to 14 h.
